Assay results published in patent US20260115189A1, “Combination Treatment Regimens - SMARCA2 Degrader With Taxane Anticancer Agent” (PRELUDE THERAPEUTICS INCORPORATED, priority 2023, published 2026).
“Also recorded” adds a separate entry of the source. Where two headings read alike, the source gives them in different places.

Experiments:
[1] = system: SMARCA4-mutated cancer cell lines; assay: Cell cycle arrest in SMARCA4-mutated cancer cell lines; format: cell-based
[2] = biological target: T1, SMARCA2 protein (Homo sapiens, UniProt P51531); assay: Semi-quantitative western blot of SMARCA2 in tumor tissue; format: in vivo, mouse xenograft; settings: for tumor SMARCA2 protein levels: repeat administration, Formula (I) 100-200 mg/kg s.c. Q3D, over a 24 h period, docetaxel 5-20 mg/kg i.v. QW; for tumor SMARCA2 protein levels relative to vehicle treated mice: tumors collected 4 hr and 24 hr post final dosing, Formula (I) 100 mg/kg s.c. Q3D, docetaxel 10/5 mg/kg i.v. QW
T1 construct: from tissue; host or cells: Frozen xenograft tumor tissue from human lung cancer cells (NCI-H838, A549 or Calu-6) grown subcutaneously in mice
T1 sequence (P51531 whole entry): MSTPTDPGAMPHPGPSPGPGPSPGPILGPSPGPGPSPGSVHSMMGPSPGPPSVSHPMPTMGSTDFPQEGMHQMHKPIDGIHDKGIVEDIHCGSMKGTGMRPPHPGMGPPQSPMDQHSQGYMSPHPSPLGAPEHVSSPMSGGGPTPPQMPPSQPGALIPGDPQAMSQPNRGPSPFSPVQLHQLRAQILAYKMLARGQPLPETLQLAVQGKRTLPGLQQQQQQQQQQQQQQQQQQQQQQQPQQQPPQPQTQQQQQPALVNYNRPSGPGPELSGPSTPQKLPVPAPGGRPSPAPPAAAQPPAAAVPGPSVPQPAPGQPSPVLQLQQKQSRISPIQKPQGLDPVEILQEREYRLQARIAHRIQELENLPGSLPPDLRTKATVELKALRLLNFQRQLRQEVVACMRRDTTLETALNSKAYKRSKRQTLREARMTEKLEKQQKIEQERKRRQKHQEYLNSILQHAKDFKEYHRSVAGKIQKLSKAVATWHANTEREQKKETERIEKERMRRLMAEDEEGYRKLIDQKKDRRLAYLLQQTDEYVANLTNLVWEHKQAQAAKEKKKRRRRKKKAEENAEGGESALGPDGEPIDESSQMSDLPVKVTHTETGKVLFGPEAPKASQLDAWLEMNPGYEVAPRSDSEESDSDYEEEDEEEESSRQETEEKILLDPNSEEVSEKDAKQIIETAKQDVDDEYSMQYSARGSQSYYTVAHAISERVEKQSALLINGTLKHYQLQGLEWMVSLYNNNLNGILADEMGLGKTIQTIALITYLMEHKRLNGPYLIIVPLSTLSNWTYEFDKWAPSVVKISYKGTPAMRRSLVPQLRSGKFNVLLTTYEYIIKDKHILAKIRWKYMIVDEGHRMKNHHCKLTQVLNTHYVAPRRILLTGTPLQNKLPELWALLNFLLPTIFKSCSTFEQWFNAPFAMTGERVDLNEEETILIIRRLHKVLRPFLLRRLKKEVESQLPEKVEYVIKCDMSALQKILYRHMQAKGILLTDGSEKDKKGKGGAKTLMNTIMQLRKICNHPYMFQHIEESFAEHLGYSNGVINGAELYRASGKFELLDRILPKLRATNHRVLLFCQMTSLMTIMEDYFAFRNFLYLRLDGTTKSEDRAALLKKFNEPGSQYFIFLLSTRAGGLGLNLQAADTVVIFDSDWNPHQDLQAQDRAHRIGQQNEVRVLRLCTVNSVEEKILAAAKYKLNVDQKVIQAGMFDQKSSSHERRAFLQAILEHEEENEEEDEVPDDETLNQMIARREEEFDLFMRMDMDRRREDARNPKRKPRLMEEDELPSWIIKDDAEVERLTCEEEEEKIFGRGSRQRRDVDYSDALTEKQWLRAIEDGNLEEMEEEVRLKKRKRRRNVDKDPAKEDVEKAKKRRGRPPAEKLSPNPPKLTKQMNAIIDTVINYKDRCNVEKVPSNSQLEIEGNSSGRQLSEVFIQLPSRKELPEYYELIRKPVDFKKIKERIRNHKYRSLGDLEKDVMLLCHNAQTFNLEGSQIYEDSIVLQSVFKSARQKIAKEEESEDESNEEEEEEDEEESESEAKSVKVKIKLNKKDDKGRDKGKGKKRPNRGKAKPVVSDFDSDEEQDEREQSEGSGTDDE
Experimental: SMARCA2 protein expression was measured by semi-quantitative western blot following extraction of protein from frozen tumor tissue. Up to 50 mg of frozen tumor tissue was measured and placed into 0.5 mL conical tubes containing 0.5 mm ceramic beads and 400 μL RIPA buffer containing 1× protease and phosphatase inhibitors (ThermoFisher Scientific, A32959) and PMSF (Cell Signaling Technology, #8553). Tissues were homogenized with a Bead Ruptor Elite at a speed of 5 m/sec for 25 seconds and centrifuged at 12,000 rpm for 3 min at 4° C. Milling and centrifugation steps were performed two additional times before transferring supernatant to UltraFree 0.45 μm 0.5 mL filter columns (Millipore Sigma, #UFC30HV) and centrifuging at 12,000 rpm for 1 min. Flow through lysate was quantified by BCA assay, diluted with 1 volume of RIPA lysis buffer, and mixed with Laemmli sample buffer. Lysates were boiled at 95° C. for 5 min and 30 μg of protein was loaded in 4-20% Criterion TGX Precast Midi Protein Gels (BioRad, #5671095). Protein was transferred to PVDF membranes by Trans-Blot Turbo system (Bio-Rad) and probed with Actin (Signma, #A2228) and SMARCA2 (Cell Signaling Technology, #11966) primary antibodies at a 1:1000 dilution and IRDye 800CW or IRDye 680RD secondary antibodies (LICOR, antibody, #926-68070) in iBind automated western system (ThermoFisher Scientific). The stained blots were scanned by LiCOR Odyssey CLx imaging system to acquire integrated intensities at 700 nm and 800 nm channel and analyzed using Image Studio software v5.2.

[3] = system: SMARCA4-WT Calu-6 Lung Cancer Xenograft; settings: for Tumor size: day 21, mean ± SEM; for Tumor size / TGI (tumor growth inhibition vs vehicle): Formula (I) 100 mg/kg Q3D, docetaxel 5/10 mg/kg QW, combination 100 + 5/10 mg/kg Q3D + QW; for TGI (tumor growth inhibition vs vehicle): day 21
Experimental: (§1) As used herein, tumor growth inhibition is calculated as follows: Mean % Inhibition=(mean(C)−mean(T))/mean(C)*100%, wherein C is the tumor volume in the control arm, and T is the tumor volume in the treatment arm.
(§2) The Calu-6 tumor cells were maintained in vitro with MEM medium supplemented with 10% fetal bovine serum at 37° C. in an atmosphere of 5% CO2 in air. The cells in exponential growth phase were harvested and quantitated by cell counter before tumor inoculation. BALB/c nude female mice were inoculated subcutaneously in the right front flank region with Calu-6 tumor cells (5×10^6) in 0.1 ml of PBS for tumor development. The randomization was performed when the mean tumor size reaches approximately 100-150 mm^3.
(§3) Tumor volumes at the end of studies were evaluated by the Mann-Whitney test (unpaired, nonparametric test). * P<0.05 […], *** P<0.001 versus vehicle are shown in graphs.

[4] = system: SMARCA4-deficient A549 Lung Cancer Xenograft; settings: for Tumor size: day 28, mean ± SEM
Experimental: as §1
as §2, with “A549” for “Calu-6”, “Ham's F12K” for “MEM”
as §3

[5] = system: SMARCA4-mutated NCI-H838 tumor tissues; assay: RNA-sequencing and Gene Set Enrichment Analysis of treated tumor tissues; format: in vivo; settings: NCI-H838 tumor tissues treated for one week
Experimental: To elucidate the mechanism of action for the combination effects observed in vivo, RNA-sequencing was conducted on SMARCA4-mutated NCI-H838 tumor tissues treated with Formula (I) and/or docetaxel for one week.

[6] = system: NCI-H838 cells (SMARCA4-del NSCLC cell line); assay: Cell cycle analysis by flow cytometry (EdU / DRAQ5); format: cell-based, human; settings: NCI-H838, single agent, 48 hrs
Experimental: Cells were seeded, incubated overnight, and dosed with drug treatments the next day. 2 hours before collection, cells were incubated with 10 μM EdU at 37 C then harvested using trypsin EDTA and washed with PBS/1% BSA. 4% PFA was added to the cells followed by a 15 minute incubation at RT. Cell were washed again with PBS/1% BSA and resuspended in 1X Click-iT® saponin-based permeabilization reagent for 15-minutes. Following centrifugation, supernatant was removed, and cells were incubated for 30 mins at RT, protected from light, in Click-iT® reaction cocktail, which was prepared according to manufacturer's instructions. Cells were then washed once with 0.01% Triton in PBS and resuspended in PBS. DRAQ5™ was added to cells at 1:200 dilution, incubated at room temperature, preventing exposure to light, for 30-60 min. Lastly, cells were washed with PBS/1% BSA and resuspended in 400 μl PBS/1% BSA. EdU with Pacific Blue™ azide and was detected using 405 nm excitation with a violet emission filter (450/50 nm) on a flow cytometer and analyzed using FlowJo software.
The combination effects of Formula (I) and docetaxel on the cell cycle was analyzed in a SMARCA4-deficient NSCLC lung cancer cell line by flow cytometry using DraQ5 and Click-iT EdU Pacific Blue. […]

[7] = system: SMARCA4-deficient NCI-H838 Lung Cancer Xenograft; settings: for Tumor size: day 20, mean ± SEM; for Tumor size / TGI (tumor growth inhibition vs vehicle): combination of both regimens; for TGI (tumor growth inhibition vs vehicle): day 20
Experimental: as §1
as §2, with “NCI-H838-#5” for “Calu-6”, “RPMI1640” for “MEM”, “NOD-SCID” for “BALB/c nude”, “PBS mixed with Matrigel (1:1)” for “PBS”
as §3

[8] = system: SMARCA4 wild-type cell lines; assay: Cell cycle arrest in SMARCA4 wild-type cell lines; format: cell-based
[9] = as printed in text: Formula (I) 200 mg/kg s.c. Q3D, docetaxel 5-20 mg/kg i.v. QW, combination Formula (I) 100 mg/kg s.c. Q3D + docetaxel 5-20 mg/kg i.v. QW
[10] = Formula (I) 100 mg/kg s.c. Q3D, docetaxel 5/10/20 mg/kg QW, combination 200 + 5/10/20 mg/kg Q3D + QW
[11] = day 28, Formula (I) 100 mg/kg s.c. Q3D, docetaxel 5/10/20 mg/kg QW, combination 200 + 5/10/20 mg/kg Q3D + QW
[12] = Formula (I) 100 mg/kg s.c. Q3D, docetaxel 10/5 mg/kg i.v. QW

| SMILES | cell cycle arrest [1] | tumor SMARCA2 protein levels [2] | tumor SMARCA2 protein levels relative to vehicle treated mice [2] | Tumor size [3] | TGI (tumor growth inhibition vs vehicle) [3] | TGI (tumor growth inhibition vs vehicle) [4, 9] [%] | Tumor size [4, 10] | TGI (tumor growth inhibition vs vehicle) [4, 11] | Gene Set Enrichment Analysis: E2F targets and G2/M pathways [5] | cell cycle arrest [6] | Tumor size [7, 12] [mm^3] | TGI (tumor growth inhibition vs vehicle) [7, 12] | TGI (tumor growth inhibition vs vehicle) ([7]; Formula (I) 100 mg/kg s.c. Q3D, docetaxel 10/5 mg/kg i.v. QW, listed as docetaxel) [%] | tolerability (morbidity, body weight) ([3]; Formula (I) 100 mg/kg s.c. Q3D, docetaxel 5/10 mg/kg i.v. QW, combination) | growth of SMARCA4 WT Calu-6 lung tumor xenografts ([3]; Formula (I) at efficacious dosing regimens) | tolerability (morbidity, body weight) ([4]; Formula (I) s.c. Q3D, docetaxel 5-20 mg/kg i.v. QW, combination) | G1 cell cycle arrest [8] | tolerability (morbidity, body weight) ([7]; Formula (I) 100 mg/kg s.c. Q3D, docetaxel 10/5 mg/kg i.v. QW, combination of both, one Formula (I) dosing holiday on day 12 in combination) | tolerability (morbidity, body weight) ([7]; single agents: Formula (I) 50 or 75 mg/kg i.v. QW, nab-paclitaxel 30 mg/kg i.v. Q3W) |
| --- | --- | --- | --- | --- | --- | --- | --- | --- | --- | --- | --- | --- | --- | --- | --- | --- | --- | --- | --- |
| CC(=O)O[C@@]12CO[C@@H]1C[C@H](O)[C@@]1(C)C(=O)[C@H](O)C3=C(C)[C@@H](OC(=O)[C@H](O)[C@@H](NC(=O)OC(C)(C)C)c4ccccc4)C[C@@](O)([C@@H](OC(=O)c4ccccc4)[C@H]21)C3(C)C [Docetaxel, reference compound] | induced G2/M arrest | no effect | no effect; also recorded: unaffected | 1,338 ± 132 mm^3 | 37.6% (day | 13 | 2,223 ± 300 mm^3 | 13.3% (day | positive enrichment of E2F targets and G2/M pathways | dose dependent G2/M arrest signal | 971.86 ± 127.82 | 55.0% (day | 55 | – | – | – | – | – | – |
| Cc1ncsc1-c1ccc([C@H](C)NC(=O)[C@@H]2C[C@@H](O)CN2C(=O)[C@@H](c2cc(O[C@@H](C)CN3CC[C@@H](N4CCN5c6cc(-c7ccccc7O)nnc6NC[C@H]5C4)C3)no2)C(C)C)cc1 [Formula (I)] | induced G1 cell cycle arrest | complete reduction | significantly decreased; also recorded: abolished | 1,535 ± 174 mm^3 | 27.2% (day | 32 | 1,785 ± 221 mm^3 | 31.6% (day | downregulating E2F targets and G2/M pathways | dose dependent G1 arrest signal | 590.46 ± 102.37 | – | – | well tolerated | did not inhibit the growth | well tolerated | not in SMARCA4 wild-type cell lines | well tolerated | well tolerated |
